In PubChem BioAssay (NCI):
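Where inhibition never reached the appropriate level, the endpoint shown equals the highest concentration tested. Otherwise, values were interpolated linearly from a five-concentration, 48-hour dose response in 96-well plates. Abbreviation: GI50, concentration required for 50% inhibition of growth. Definition used: TGI = concentration required for complete inhibition of growth.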

test system: SNB-19 CNS; assay: growth of human tumour cells (NCI), 48 h

SMILES	TGI [µM]	GI50 [µM]
Cc1cc2nc(C=C(C(F)(F)F)C(F)(F)F)oc2cc1C	> 10	–
CCc1nc(N)nc(N)c1-c1ccc(NC)c([N+](=O)[O-])c1	> 80.4	–
CCOP(=O)(OCC)C(c1ccc(F)cc1)N(C(=O)NC(F)(F)F)c1cccc(C(F)(F)F)c1 (stereo not given)	> 100	–
O=C1c2cccnc2-c2nc(-c3ccc(Cl)cc3)cc3c2c1nc1ccccc13	> 100	> 100
COc1c(C)cc2c(c1O)C1C3[C@H]4SC[C@@]5(NCCC6=C5NC5C=CC=CC65)C(=O)OCC(c5c6c(c(C)c(OC(C)=O)c54)OCO6)N3[C@@H](O)C(C2)N1C (stereo not given in full)	3.64	–
Clc1ccc(-c2cc3nc4ccccc4nc3o2)cc1	> 100	–

test system: SF-268 CNS; assay: growth of human tumour cells (NCI), 48 h

SMILES	TGI [µM]	GI50 [µM]
Cc1cc2nc(C=C(C(F)(F)F)C(F)(F)F)oc2cc1C	9	–
CCc1nc(N)nc(N)c1-c1ccc(NC)c([N+](=O)[O-])c1	> 100	–
CCOP(=O)(OCC)C(c1ccc(F)cc1)N(C(=O)NC(F)(F)F)c1cccc(C(F)(F)F)c1 (stereo not given)	> 100	–
O=C1c2cccnc2-c2nc(-c3ccc(Cl)cc3)cc3c2c1nc1ccccc13	> 100	71.2
Clc1ccc(-c2cc3nc4ccccc4nc3o2)cc1	> 100	–

test system: A549 NSCLC; assay: growth of human tumour cells (NCI), 48 h

SMILES	TGI [µM]	GI50 [µM]
Cc1cc2nc(C=C(C(F)(F)F)C(F)(F)F)oc2cc1C	> 10	–
CCc1nc(N)nc(N)c1-c1ccc(NC)c([N+](=O)[O-])c1	> 100	–
CCOP(=O)(OCC)C(c1ccc(F)cc1)N(C(=O)NC(F)(F)F)c1cccc(C(F)(F)F)c1 (stereo not given)	> 100	–
O=C1c2cccnc2-c2nc(-c3ccc(Cl)cc3)cc3c2c1nc1ccccc13	> 100	35.6
COc1c(C)cc2c(c1O)C1C3[C@H]4SC[C@@]5(NCCC6=C5NC5C=CC=CC65)C(=O)OCC(c5c6c(c(C)c(OC(C)=O)c54)OCO6)N3[C@@H](O)C(C2)N1C (stereo not given in full)	1.72	–
Clc1ccc(-c2cc3nc4ccccc4nc3o2)cc1	> 100	–

test system: MOLT-4 leukemia; assay: growth of human tumour cells (NCI), 48 h

SMILES	TGI [µM]	GI50 [µM]
Cc1cc2nc(C=C(C(F)(F)F)C(F)(F)F)oc2cc1C	5.66	–
CCc1nc(N)nc(N)c1-c1ccc(NC)c([N+](=O)[O-])c1	> 68.2	–
CCOP(=O)(OCC)C(c1ccc(F)cc1)N(C(=O)NC(F)(F)F)c1cccc(C(F)(F)F)c1 (stereo not given)	> 100	–
O=C1c2cccnc2-c2nc(-c3ccc(Cl)cc3)cc3c2c1nc1ccccc13	> 100	51.7
Clc1ccc(-c2cc3nc4ccccc4nc3o2)cc1	> 100	–

test system: HT29 colon; assay: growth of human tumour cells (NCI), 48 h

SMILES	TGI [µM]
Cc1cc2nc(C=C(C(F)(F)F)C(F)(F)F)oc2cc1C	7.76
CCc1nc(N)nc(N)c1-c1ccc(NC)c([N+](=O)[O-])c1	33.7
CCOP(=O)(OCC)C(c1ccc(F)cc1)N(C(=O)NC(F)(F)F)c1cccc(C(F)(F)F)c1 (stereo not given)	> 100
COc1c(C)cc2c(c1O)C1C3[C@H]4SC[C@@]5(NCCC6=C5NC5C=CC=CC65)C(=O)OCC(c5c6c(c(C)c(OC(C)=O)c54)OCO6)N3[C@@H](O)C(C2)N1C (stereo not given in full)	10.3
Clc1ccc(-c2cc3nc4ccccc4nc3o2)cc1	> 100

test system: SK-MEL-5 melanoma; assay: growth of human tumour cells (NCI), 48 h

SMILES	TGI [µM]	GI50 [µM]
Cc1cc2nc(C=C(C(F)(F)F)C(F)(F)F)oc2cc1C	> 10	–
CCc1nc(N)nc(N)c1-c1ccc(NC)c([N+](=O)[O-])c1	29.1	–
CCOP(=O)(OCC)C(c1ccc(F)cc1)N(C(=O)NC(F)(F)F)c1cccc(C(F)(F)F)c1 (stereo not given)	> 100	–
O=C1c2cccnc2-c2nc(-c3ccc(Cl)cc3)cc3c2c1nc1ccccc13	80.8	17.5
Clc1ccc(-c2cc3nc4ccccc4nc3o2)cc1	> 100	–

test system: MCF7 breast; assay: growth of human tumour cells (NCI), 48 h

SMILES	TGI [µM]	GI50 [µM]
Cc1cc2nc(C=C(C(F)(F)F)C(F)(F)F)oc2cc1C	> 10	–
CCc1nc(N)nc(N)c1-c1ccc(NC)c([N+](=O)[O-])c1	> 87.3	–
CCOP(=O)(OCC)C(c1ccc(F)cc1)N(C(=O)NC(F)(F)F)c1cccc(C(F)(F)F)c1 (stereo not given)	> 100	–
O=C1c2cccnc2-c2nc(-c3ccc(Cl)cc3)cc3c2c1nc1ccccc13	75.4	18.8
Clc1ccc(-c2cc3nc4ccccc4nc3o2)cc1	> 100	–

test system: HS 578T breast; assay: growth of human tumour cells (NCI), 48 h

SMILES	TGI [µM]	GI50 [µM]
Cc1cc2nc(C=C(C(F)(F)F)C(F)(F)F)oc2cc1C	8.84	–
CCc1nc(N)nc(N)c1-c1ccc(NC)c([N+](=O)[O-])c1	> 100	–
CCOP(=O)(OCC)C(c1ccc(F)cc1)N(C(=O)NC(F)(F)F)c1cccc(C(F)(F)F)c1 (stereo not given)	> 100	–
O=C1c2cccnc2-c2nc(-c3ccc(Cl)cc3)cc3c2c1nc1ccccc13	> 100	29
Clc1ccc(-c2cc3nc4ccccc4nc3o2)cc1	> 100	–

test system: ACHN renal; assay: growth of human tumour cells (NCI), 48 h

SMILES	TGI [µM]	GI50 [µM]
Cc1cc2nc(C=C(C(F)(F)F)C(F)(F)F)oc2cc1C	> 10	–
CCc1nc(N)nc(N)c1-c1ccc(NC)c([N+](=O)[O-])c1	> 100	–
CCOP(=O)(OCC)C(c1ccc(F)cc1)N(C(=O)NC(F)(F)F)c1cccc(C(F)(F)F)c1 (stereo not given)	> 100	–
O=C1c2cccnc2-c2nc(-c3ccc(Cl)cc3)cc3c2c1nc1ccccc13	33.7	15.9
Clc1ccc(-c2cc3nc4ccccc4nc3o2)cc1	> 100	–

test system: HOP-62 NSCLC; assay: growth of human tumour cells (NCI), 48 h

SMILES	TGI [µM]
Cc1cc2nc(C=C(C(F)(F)F)C(F)(F)F)oc2cc1C	9.72
CCc1nc(N)nc(N)c1-c1ccc(NC)c([N+](=O)[O-])c1	37.7
CCOP(=O)(OCC)C(c1ccc(F)cc1)N(C(=O)NC(F)(F)F)c1cccc(C(F)(F)F)c1 (stereo not given)	> 100
COc1c(C)cc2c(c1O)C1C3[C@H]4SC[C@@]5(NCCC6=C5NC5C=CC=CC65)C(=O)OCC(c5c6c(c(C)c(OC(C)=O)c54)OCO6)N3[C@@H](O)C(C2)N1C (stereo not given in full)	< 0.01

test system: LOX IMVI melanoma; assay: growth of human tumour cells (NCI), 48 h

SMILES	TGI [µM]	GI50 [µM]
Cc1cc2nc(C=C(C(F)(F)F)C(F)(F)F)oc2cc1C	3.96	–
CCc1nc(N)nc(N)c1-c1ccc(NC)c([N+](=O)[O-])c1	> 100	–
CCOP(=O)(OCC)C(c1ccc(F)cc1)N(C(=O)NC(F)(F)F)c1cccc(C(F)(F)F)c1 (stereo not given)	> 100	–
O=C1c2cccnc2-c2nc(-c3ccc(Cl)cc3)cc3c2c1nc1ccccc13	> 100	35.7
Clc1ccc(-c2cc3nc4ccccc4nc3o2)cc1	> 100	–

test system: MDA-MB-231 breast; assay: growth of human tumour cells (NCI), 48 h

SMILES	TGI [µM]	GI50 [µM]
Cc1cc2nc(C=C(C(F)(F)F)C(F)(F)F)oc2cc1C	5.42	–
CCc1nc(N)nc(N)c1-c1ccc(NC)c([N+](=O)[O-])c1	> 100	–
CCOP(=O)(OCC)C(c1ccc(F)cc1)N(C(=O)NC(F)(F)F)c1cccc(C(F)(F)F)c1 (stereo not given)	> 100	–
O=C1c2cccnc2-c2nc(-c3ccc(Cl)cc3)cc3c2c1nc1ccccc13	> 100	44.1
Clc1ccc(-c2cc3nc4ccccc4nc3o2)cc1	> 100	–

test system: IGROV1 ovarian; assay: growth of human tumour cells (NCI), 48 h

SMILES	TGI [µM]	GI50 [µM]
Cc1cc2nc(C=C(C(F)(F)F)C(F)(F)F)oc2cc1C	8.08	–
CCc1nc(N)nc(N)c1-c1ccc(NC)c([N+](=O)[O-])c1	> 100	–
CCOP(=O)(OCC)C(c1ccc(F)cc1)N(C(=O)NC(F)(F)F)c1cccc(C(F)(F)F)c1 (stereo not given)	> 100	–
O=C1c2cccnc2-c2nc(-c3ccc(Cl)cc3)cc3c2c1nc1ccccc13	> 100	32.3
COc1c(C)cc2c(c1O)C1C3[C@H]4SC[C@@]5(NCCC6=C5NC5C=CC=CC65)C(=O)OCC(c5c6c(c(C)c(OC(C)=O)c54)OCO6)N3[C@@H](O)C(C2)N1C (stereo not given in full)	1.85	–
Clc1ccc(-c2cc3nc4ccccc4nc3o2)cc1	> 100	–

test system: UACC-257 melanoma; assay: growth of human tumour cells (NCI), 48 h

SMILES	TGI [µM]	GI50 [µM]
Cc1cc2nc(C=C(C(F)(F)F)C(F)(F)F)oc2cc1C	> 10	–
CCc1nc(N)nc(N)c1-c1ccc(NC)c([N+](=O)[O-])c1	> 100	–
CCOP(=O)(OCC)C(c1ccc(F)cc1)N(C(=O)NC(F)(F)F)c1cccc(C(F)(F)F)c1 (stereo not given)	> 100	–
O=C1c2cccnc2-c2nc(-c3ccc(Cl)cc3)cc3c2c1nc1ccccc13	> 100	57.7
COc1c(C)cc2c(c1O)C1C3[C@H]4SC[C@@]5(NCCC6=C5NC5C=CC=CC65)C(=O)OCC(c5c6c(c(C)c(OC(C)=O)c54)OCO6)N3[C@@H](O)C(C2)N1C (stereo not given in full)	< 0.01	–
Clc1ccc(-c2cc3nc4ccccc4nc3o2)cc1	> 100	–

test system: NCI-H23 lung; assay: growth of human tumour cells (NCI), 48 h

SMILES	TGI [µM]
Cc1cc2nc(C=C(C(F)(F)F)C(F)(F)F)oc2cc1C	4.97
CCc1nc(N)nc(N)c1-c1ccc(NC)c([N+](=O)[O-])c1	> 100
CCOP(=O)(OCC)C(c1ccc(F)cc1)N(C(=O)NC(F)(F)F)c1cccc(C(F)(F)F)c1 (stereo not given)	> 100
Clc1ccc(-c2cc3nc4ccccc4nc3o2)cc1	> 100

test system: COLO 205 colon; assay: growth of human tumour cells (NCI), 48 h

SMILES	TGI [µM]
Cc1cc2nc(C=C(C(F)(F)F)C(F)(F)F)oc2cc1C	0.392
